## c1ccc2[nH]c(-c3cscn3)nc2c1
In acetonitrile, 283.15 K
  solubility (mole fraction): 0.000106
In acetonitrile, 288.15 K
  solubility (mole fraction): 0.000125
In acetonitrile, 293.15 K
  solubility (mole fraction): 0.00015
In acetonitrile, 298.15 K
  solubility (mole fraction): 0.000177
In acetonitrile, 303.15 K
  solubility (mole fraction): 0.000213
In acetonitrile, 308.15 K
  solubility (mole fraction): 0.000259
In acetonitrile, 313.15 K
  solubility (mole fraction): 0.0003
In acetonitrile, 318.15 K
  solubility (mole fraction): 0.000353
In acetonitrile, 323.15 K
  solubility (mole fraction): 0.000419
In isopropanol, 283.15 K
  solubility (mole fraction): 0.000682
In isopropanol, 288.15 K
  solubility (mole fraction): 0.000785
In isopropanol, 293.15 K
  solubility (mole fraction): 0.000915
In isopropanol, 298.15 K
  solubility (mole fraction): 0.00103
In isopropanol, 303.15 K
  solubility (mole fraction): 0.00121
In isopropanol, 308.15 K
  solubility (mole fraction): 0.00137
In isopropanol, 313.15 K
  solubility (mole fraction): 0.00155
In isopropanol, 318.15 K
  solubility (mole fraction): 0.00174
In isopropanol, 323.15 K
  solubility (mole fraction): 0.00193
In methanol, 283.15 K
  solubility (mole fraction): 0.0013
In methanol, 288.15 K
  solubility (mole fraction): 0.00147
In methanol, 293.15 K
  solubility (mole fraction): 0.00163
In methanol, 298.15 K
  solubility (mole fraction): 0.00181
In methanol, 303.15 K
  solubility (mole fraction): 0.002
In methanol, 308.15 K
  solubility (mole fraction): 0.00223
In methanol, 313.15 K
  solubility (mole fraction): 0.00248
In methanol, 318.15 K
  solubility (mole fraction): 0.00273
In methanol, 323.15 K
  solubility (mole fraction): 0.00297
In n-propanol, 283.15 K
  solubility (mole fraction): 0.00136
In n-propanol, 288.15 K
  solubility (mole fraction): 0.00156
In n-propanol, 293.15 K
  solubility (mole fraction): 0.00177
In n-propanol, 298.15 K
  solubility (mole fraction): 0.002
In n-propanol, 303.15 K
  solubility (mole fraction): 0.00225
In n-propanol, 308.15 K
  solubility (mole fraction): 0.00252
In n-propanol, 313.15 K
  solubility (mole fraction): 0.00282
In n-propanol, 318.15 K
  solubility (mole fraction): 0.00314
In n-propanol, 323.15 K
  solubility (mole fraction): 0.00347
In water, 283.15 K
  solubility (mole fraction): 2.04e-07
In water, 288.15 K
  solubility (mole fraction): 2.67e-07
In water, 293.15 K
  solubility (mole fraction): 3.42e-07
In water, 298.15 K
  solubility (mole fraction): 4.23e-07
In water, 303.15 K
  solubility (mole fraction): 5.25e-07
In water, 308.15 K
  solubility (mole fraction): 6.68e-07
In water, 313.15 K
  solubility (mole fraction): 8.6e-07
In water, 318.15 K
  solubility (mole fraction): 1.08e-06
In water, 323.15 K
  solubility (mole fraction): 1.36e-06
